The results in this text go back to patent US10124004B2, “Pyrido[3,4-d]pyrimidine derivative and pharmaceutically acceptable salt thereof” (Teijin Pharma Limited, priority 2015, dated 2018).

One test has as its target T1, CDK4/cyclin D3 (Homo sapiens, UniProt P11802).
T1 construct: purchased Carna Biosciences, Inc. QS S Assist CDK4/Cyclin D3_FP Kit
Briefly: Human CDK4/cyclin D3 inhibitory activity (QS S Assist CDK4/Cyclin D3_FP Kit, IMAP fluorescence polarization). It counts as biochemical. The settings on record: 50% inhibitory concentration against CDK4/cyclin D3, given as class symbol. In outline: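 IMAP fluorescence-polarization kinase assay with kit ATP/substrate/metal mix and 12.5 to 25 ng/well enzyme in 20 mM HEPES pH 7.4, 0.01% Tween20, 2 mM DTT. Reaction ran 45 min at room temperature, then binding reagent was added for 30 min in the dark. IC50 was taken from dose-response fits of percent inhibition.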
For orientation: Fluorescence polarisation rises when a labelled molecule tumbles more slowly, as on binding a larger partner.

A further test concerns the target T2, CDK2/cyclin A2 (Homo sapiens, UniProt P24941).
T2 construct: purchased Carna Biosciences, Inc. QS S Assist CDK2/Cyclin A2_FP Kit
The experiment in a line: Human CDK2/cyclin A2 inhibitory activity (QS S Assist CDK2/Cyclin A2_FP Kit, IMAP fluorescence polarization). The settings on record: 50% inhibitory concentration against CDK2/cyclin A2, given as class symbol. In kind it is biochemical. In outline:
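Kinase activity read as fluorescence polarization (485/535 nm) after phosphorylated fluorescent substrate binds IMAP reagent (30 min, RT, dark). Enzyme (2.5 ng/well) reacted 60 min at RT with ATP/substrate/metal in HEPES pH 7.4 buffer with Tween 20 and DTT; no-enzyme wells define 0% activity; IC50 by curve fit.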

pIC50: −log10 of the molar value.

T1 sequence (P11802 whole entry): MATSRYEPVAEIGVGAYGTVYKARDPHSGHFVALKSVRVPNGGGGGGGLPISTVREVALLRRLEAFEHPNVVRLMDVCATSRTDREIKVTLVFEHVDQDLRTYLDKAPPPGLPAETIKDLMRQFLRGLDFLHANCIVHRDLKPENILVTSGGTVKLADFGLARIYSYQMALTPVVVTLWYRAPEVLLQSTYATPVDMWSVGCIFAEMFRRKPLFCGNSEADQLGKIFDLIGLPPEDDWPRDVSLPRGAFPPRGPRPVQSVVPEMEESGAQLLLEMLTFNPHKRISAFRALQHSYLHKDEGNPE
T1 sequence (P30281 whole entry partner): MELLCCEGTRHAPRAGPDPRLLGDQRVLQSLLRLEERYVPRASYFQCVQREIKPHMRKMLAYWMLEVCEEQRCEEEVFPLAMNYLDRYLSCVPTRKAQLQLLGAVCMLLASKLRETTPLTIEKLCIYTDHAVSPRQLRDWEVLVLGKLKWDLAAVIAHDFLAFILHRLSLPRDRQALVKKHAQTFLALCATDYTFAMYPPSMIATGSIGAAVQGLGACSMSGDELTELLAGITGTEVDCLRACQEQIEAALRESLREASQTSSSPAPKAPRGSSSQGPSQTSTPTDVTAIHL

`COC1CCC(Nc2nc([C@@H](C)OC)cc3cnc(Nc4ccc(N5CCNCC5)nn4)nc23)CC1` (stereo partly shown) [Compound 711]: the pIC50 against CDK4/cyclin D3 was above 8.00; against CDK2/cyclin A2, at most 7.00.
For `CO[C@H](C)c1cc2cnc(Nc3ccc(N4CCNCC4)nn3)nc2c(NC2CCCC2)n1` [Compound 712] the same measures were above 8.00 and at most 7.00.
As for `CO[C@H](C)c1cc2cnc(Nc3ncc(N4CCNCC4=O)cc3F)nc2c(NC(C)C)n1` [Compound 715], the pIC50 is 7.00 to 8.00 on CDK4/cyclin D3 and at most 7.00 on CDK2/cyclin A2.
As to `CC(C)Nc1nc([C@@H](C)O)cc2cnc(Nc3cnc(N4CCNCC4=O)cn3)nc12` [Compound 716], the pIC50 on CDK4/cyclin D3 is 7.00 to 8.00; on CDK2/cyclin A2, at most 7.00.
As to `COC(=O)CNCCNc1ccc(Nc2ncc3cc([C@@H](C)O)nc(NC(C)C)c3n2)nc1` [Compound 717], the pIC50 against CDK4/cyclin D3 was 7.00 to 8.00; at CDK2/cyclin A2, at most 7.00.
For `CC(C)Nc1nc([C@@H](C)F)cc2cnc(Nc3ccc(N4CCNCC4)nn3)nc12` [Compound 718] the same measures were 7.00 to 8.00 and at most 7.00.
With `C[C@@H](O)c1nc(N[C@H]2CCCOC2)c2nc(Nc3ccc(OCCN(C)C)cn3)ncc2c1Cl` [Compound 719], the results for the pIC50 against CDK4/cyclin D3 and at CDK2/cyclin A2 were above 8.00 and at most 7.00, respectively.
For `CC(C)Nc1nc([C@@H](C)O)cc2cnc(Nc3ccc(N4CCN(C[C@H](C)O)CCC4=O)cn3)nc12` [Compound 720], the pIC50 is above 8.00 against CDK4/cyclin D3 and at most 7.00 on CDK2/cyclin A2.
For `CC(C)Nc1nc([C@@H](C)O)cc2cnc(Nc3ccc(N4CCN(C[C@@H](C)O)CCC4=O)cn3)nc12` [Compound 721], the pIC50 was above 8.00 on CDK4/cyclin D3 and at most 7.00 against CDK2/cyclin A2.
`CC(C)Nc1nc([C@@H](C)O)cc2cnc(Nc3ccc(N4CCC(NC(C)C)CC4)nn3)nc12` [Compound 722]: the pIC50 on CDK4/cyclin D3 was above 8.00; against CDK2/cyclin A2, at most 7.00.
With `CC(C)Nc1nc([C@@H](C)O)cc2cnc(Nc3ccc(N4CCC(O)C5(CC5)C4)nn3)nc12` (stereo partly shown) [Compound 723], the pIC50 was above 8.00 at CDK4/cyclin D3 and at most 7.00 at CDK2/cyclin A2.
With `CO[C@H](C)c1cc2cnc(Nc3ccc(N4CCNCC4)nn3)nc2c(NC2CCC(C)(C)CC2)n1` [Compound 726], the pIC50 against CDK4/cyclin D3 was above 8.00; at CDK2/cyclin A2, at most 7.00.
`CO[C@H](C)c1cc2cnc(Nc3ccc(N4CCNCC4)nn3)nc2c(NC2CCC(C)(C)OC2)n1` (stereo partly shown) [Compound 727]: the pIC50 against CDK4/cyclin D3 is above 8.00; against CDK2/cyclin A2, at most 7.00.
For `CO[C@H](C)c1cc2cnc(Nc3ccc(N4CCNCC4)nn3)nc2c(SC(C)C)n1` [Compound 728] the same measures were above 8.00 and at most 7.00.
As for `CC(C)Nc1nc([C@@H](C)O)cc2cnc(Nc3ccc(N4CCN=CC4=O)cn3)nc12` [Compound 731], the pIC50 against CDK4/cyclin D3 is above 8.00; against CDK2/cyclin A2 it was at most 7.00.
`CC(C)Nc1nc([C@@H](C)O)cc2cnc(Nc3ccc(N4CCNC(C(C)C)C4=O)cn3)nc12` (stereo partly shown) [Compound 732]: the pIC50 is above 8.00 against CDK4/cyclin D3 and at most 7.00 at CDK2/cyclin A2.
Consider `CC(C)Nc1nc([C@@H](C)O)cc2cnc(Nc3ccc(N4CCNC5(CC5)C4=O)cn3)nc12` [Compound 733], for which the values for the pIC50 against CDK4/cyclin D3 and at CDK2/cyclin A2 were 7.00 to 8.00 and at most 7.00, respectively.
Take `CC(=O)c1cc2cnc(Nc3ccc(OCCN(C)C)cn3)nc2c(NC(C)C)n1` [Compound 734]: the pIC50 was above 8.00 against CDK4/cyclin D3 and at most 7.00 at CDK2/cyclin A2.
For the compound `CN[C@H]1CC[C@H](Oc2ccc(Nc3ncc4cc([C@@H](C)O)nc(NC(C)C)c4n3)nc2)CC1` [Compound 737], the pIC50 at CDK4/cyclin D3 was above 8.00; on CDK2/cyclin A2 it was at most 7.00.
The like results for `CN[C@H]1CC[C@@H](Oc2ccc(Nc3ncc4cc([C@@H](C)O)nc(NC(C)C)c4n3)nc2)CC1` [Compound 738] were, in that order, above 8.00 and at most 7.00.
The like results for `CNC1CCCC1Oc1ccc(Nc2ncc3cc(C(C)O)nc(NC(C)C)c3n2)nc1` (stereo not shown) [Compound 739] were, in that order, above 8.00 and at most 7.00.
Turning to `CC(C)Nc1nc([C@@H](C)O)cc2cnc(Nc3ccc(O[C@H]4CC[C@H](N(C)C)CC4)cn3)nc12` [Compound 740], the pIC50 was above 8.00 on CDK4/cyclin D3 and at most 7.00 against CDK2/cyclin A2.
Take `CC(C)Nc1nc([C@@H](C)O)cc2cnc(Nc3ccc(O[C@H]4CC[C@@H](N(C)C)CC4)cn3)nc12` [Compound 741]: the pIC50 on CDK4/cyclin D3 is above 8.00; against CDK2/cyclin A2 it was at most 7.00.
The like results for `CC(C)Nc1nc(C(C)O)cc2cnc(Nc3ccc(OC4CCCC4N(C)C)cn3)nc12` (stereo not shown) [Compound 742] were, in that order, above 8.00 and at most 7.00.
Regarding `CC(=O)c1cc2cnc(Nc3ccc(N4CCNCC4=O)cn3)nc2c(NC(C)C)n1` [Compound 743], the pIC50 on CDK4/cyclin D3 is above 8.00; against CDK2/cyclin A2 it was at most 7.00.
For the compound `CC(C)Sc1nc([C@@H](C)O)cc2cnc(Nc3ccc(N4CCNCC4=O)cn3)nc12` [Compound 744], the pIC50 against CDK4/cyclin D3 was above 8.00; on CDK2/cyclin A2 it was at most 7.00.
Regarding `CC(=O)N1CCN(c2ccc(Nc3ncc4cc([C@@H](C)O)nc(NC(C)C)c4n3)nn2)CC1` [Compound 745], the pIC50 against CDK4/cyclin D3 was above 8.00; against CDK2/cyclin A2, at most 7.00.
Regarding `CC(C)Nc1nc([C@@H](C)O)cc2cnc(Nc3ccc(N4CCN(C(=O)C(C)C)CC4)nn3)nc12` [Compound 746], the pIC50 is above 8.00 at CDK4/cyclin D3 and at most 7.00 on CDK2/cyclin A2.
The like results for `CO[C@H](C)c1cc2cnc(Nc3ccc(N4CCN(C(=O)C(C)C)CC4)nn3)nc2c(NC(C)C)n1` [Compound 747] were, in that order, 7.00 to 8.00 and at most 7.00.
In the case of `CO[C@H](C)c1cc2cnc(Nc3ccc(N4CCN(C(=O)OC(C)C)CC4)nn3)nc2c(NC(C)C)n1` [Compound 748], the values for the pIC50 against CDK4/cyclin D3 and on CDK2/cyclin A2 were 7.00 to 8.00 and at most 7.00, respectively.
On to `CC(C)Nc1nc([C@@H](C)O)c(Cl)c2cnc(Nc3ccc(N4CCCNCC4=O)cn3)nc12` [Compound 750], for which the values for the pIC50 at CDK4/cyclin D3 and against CDK2/cyclin A2 were above 8.00 and at most 7.00, respectively.
Turning to `C[C@@H](O)c1nc(N[C@H]2CCCOC2)c2nc(Nc3ccc(N4CCNCC4=O)cn3)ncc2c1Cl` [Compound 751], the pIC50 was above 8.00 at CDK4/cyclin D3 and at most 7.00 against CDK2/cyclin A2.
For `COC[C@H](C)Nc1nc([C@@H](C)O)cc2cnc(Nc3ccc(N4CCNCC4=O)cn3)nc12` [Compound 752] the same measures were 7.00 to 8.00 and at most 7.00.
The like results for `CC(C)Nc1nc([C@@H](C)O)c(Cl)c2cnc(Nc3ccc(N4CCC(O)CC4)nn3)nc12` [Compound 753] were, in that order, above 8.00 and at most 7.00.
As to `COC[C@H](C)Nc1nc([C@@H](C)O)cc2cnc(Nc3ccc(OCCN(C)C)cn3)nc12` [Compound 754], the pIC50 was 7.00 to 8.00 on CDK4/cyclin D3 and at most 7.00 at CDK2/cyclin A2.
For `CNCCOc1ccc(Nc2ncc3c(Cl)c([C@@H](C)O)nc(N[C@H]4CCCOC4)c3n2)nc1` [Compound 755] the same measures were above 8.00 and at most 7.00.
The like results for `COC[C@H](C)Nc1nc([C@@H](C)O)c(Cl)c2cnc(Nc3ccc(N4CCNCC4=O)cn3)nc12` [Compound 756] were, in that order, 7.00 to 8.00 and at most 7.00.
For `CNCCOc1ccc(Nc2ncc3cc([C@@H](C)O)nc(N[C@@H](C)COC)c3n2)nc1` [Compound 757], the pIC50 at CDK4/cyclin D3 was above 8.00; at CDK2/cyclin A2 it was at most 7.00.
As for `CNCCOc1ccc(Nc2ncc3c(Cl)c([C@@H](C)O)nc(N[C@@H](C)COC)c3n2)nc1` [Compound 758], the values for the pIC50 against CDK4/cyclin D3 and against CDK2/cyclin A2 were 7.00 to 8.00 and at most 7.00, respectively.
Turning to `COC[C@H](C)Nc1nc([C@@H](C)O)c(Cl)c2cnc(Nc3ccc(N4CCC(O)CC4)nn3)nc12` [Compound 759], the figures for the pIC50 against CDK4/cyclin D3 and against CDK2/cyclin A2 were 7.00 to 8.00 and at most 7.00, respectively.
Take `COC[C@H](C)Nc1nc([C@@H](C)O)cc2cnc(Nc3ccc(N4CCC(O)CC4)nn3)nc12` [Compound 760]: the pIC50 at CDK4/cyclin D3 is 7.00 to 8.00; on CDK2/cyclin A2 it was at most 7.00.
Take `COC1CCN(c2ccc(Nc3ncc4cc([C@@H](C)O)nc(NC(C)C)c4n3)nn2)CC1` [Compound 761]: the pIC50 at CDK4/cyclin D3 is above 8.00; against CDK2/cyclin A2, at most 7.00.
Regarding `COC1CCN(c2ccc(Nc3ncc4cc([C@@H](C)O)nc(N[C@H]5CCCOC5)c4n3)nn2)CC1` [Compound 762], the pIC50 at CDK4/cyclin D3 was above 8.00; at CDK2/cyclin A2, at most 7.00.
For `CC(C)Nc1nc(C2CCOC2)cc2cnc(Nc3ccc(N4CCNCC4=O)cn3)nc12` (stereo not shown) [Compound 763], the figures for the pIC50 at CDK4/cyclin D3 and on CDK2/cyclin A2 were above 8.00 and at most 7.00, respectively.
For the compound `CC(C)Nc1nc([C@@H](C)O)cc2cnc(Nc3ccc(N4CCNCC4C(F)(F)F)cn3)nc12` (stereo partly shown) [Compound 764], the pIC50 at CDK4/cyclin D3 is above 8.00; against CDK2/cyclin A2, at most 7.00.
For `CC(C)Nc1nc([C@@H](C)O)cc2cnc(Nc3ccc(N4CCN[C@@H](C(C)C)C4=O)cn3)nc12` [Compound 765] the same measures were above 8.00 and at most 7.00.
The like results for `CC(C)Nc1nc([C@@H](C)O)cc2cnc(Nc3ccc(N4CCN[C@H](C(C)C)C4=O)cn3)nc12` [Compound 766] were, in that order, 7.00 to 8.00 and at most 7.00.
In the case of `CC(C)Nc1nc([C@@H](C)O)cc2cnc(Nc3ccc(N4CCN(C(=O)OC(C)C)CC4)nn3)nc12` [Compound 767], the figures for the pIC50 against CDK4/cyclin D3 and on CDK2/cyclin A2 were above 8.00 and at most 7.00, respectively.
For `CC(C)Nc1nc([C@@H](C)O)cc2cnc(Nc3ccc(NC(=O)C4CCNCC4)cn3)nc12` [Compound 768] the same measures were above 8.00 and at most 7.00.
The like results for `CC(C)Nc1nc([C@@H](C)O)cc2cnc(Nc3ccc(NC(=O)C4CCCNC4)cn3)nc12` (stereo partly shown) [Compound 769] were, in that order, above 8.00 and at most 7.00.

Usually pIC50 stands for −log10 of the IC50, conventionally taken in molar units. Read a high pIC50 as a small IC50.
